Measurements published in patent US20240254129A1, “HETEROCYCLIC COMPOUNDS AND USES THEREOF” (Kumquat Biosciences Inc., priority 2021, published 2024).

How the values were obtained:
[1] = biological target: GST-tagged K-Ras mutant / His-tagged hSOS1 (Homo sapiens, UniProt P01116); experiment: HTRF assay, K-Ras mutant / SOS1 interaction; assay type: binding; conditions: compound nos. 401-703; read-out: IC50 against mutant Kras
Outline: (§1)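 GST-tagged K-Ras (mutant or wildtype) with anti-GST-Eu donor was mixed with His-hSOS1 and anti-6His-XL665 acceptor in HEPES pH 7.4 buffer with NaCl, DTT, BSA and Igepal. After ≥10 min, HTRF was read (ex 337 nm, em 620/665 nm); 665/620 ratios gave IC50 from duplicate dilution series.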

[2] = biological target: T1, wildtype Kras / hSOS1 (Homo sapiens, UniProt P01116); experiment: HTRF assay, wildtype Kras / SOS1 interaction; assay type: binding; conditions: compound nos. 401-703; read-out: IC50 against wildtype Kras
T1 construct: made in house; host or cells: E. coli BL21 (DE3)
Outline: as §1

T1 sequence (P01116 1-188 isoform P01116-2): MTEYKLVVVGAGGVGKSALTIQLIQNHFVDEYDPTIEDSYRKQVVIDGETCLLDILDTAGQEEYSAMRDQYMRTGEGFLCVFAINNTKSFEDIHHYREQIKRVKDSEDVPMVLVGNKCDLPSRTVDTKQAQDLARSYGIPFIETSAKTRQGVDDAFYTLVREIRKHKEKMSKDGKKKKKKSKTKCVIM
Chain of GST-tagged K-Ras mutant / His-tagged hSOS1 (P01116 whole entry G12D, form open): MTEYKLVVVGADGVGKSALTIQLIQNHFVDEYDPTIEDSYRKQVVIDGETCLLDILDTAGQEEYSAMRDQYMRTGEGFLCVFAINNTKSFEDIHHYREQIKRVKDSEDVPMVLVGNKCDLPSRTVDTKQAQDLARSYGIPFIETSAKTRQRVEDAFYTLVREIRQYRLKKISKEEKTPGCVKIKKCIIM

| IC50 [1] | IC50 [2] | SMILES |
| --- | --- | --- |
| > 500 nM | > 500 nM | Oc1cc(CN2CCc3nc(OCC45CCCN4CCC5)nc(N4CC5CCC(C4)N5)c3CC2)c2ccccc2c1 [Compound 658, 4-((4-(3,8-diazabicyclo-[3.2.1]-octan-3-yl)-2-((tetrahydro-1H-pyrrolizin-7a(5H)-yl)methoxy)-5,6,8,9-tetrahydro-7H-pyrimido-[4,5-d]azepin-7-yl)methyl)-naphthalen-2-ol] |
| > 500 nM | > 500 nM | Cc1ccc(C2(N)CC2)cc1-c1c(Cl)cc2c(N3CC4CCC(C3)N4)nc(OCC34CCCN3CCC4)nc2c1F [Compound 661, 1-(3-(4-(3,8-diazabicyclo-[3.2.1]octan-3-yl)-6-chloro-8-fluoro-2-((tetrahydro-1H-pyrrolizin-7a(5H)-yl)meth-oxy)quinazolin-7-yl)-4-methylphenyl)cyclopropan-1-amine] |
| > 500 nM | > 500 nM | Nc1nc2c(-c3c(Cl)cc4c(N5CC6CCC(C5)N6)nc(OC[C@@]56CCCN5C[C@H](F)C6)nc4c3F)cccc2cc1F [Compound 665, 8-(4-(3,8-diazabicyclo-[3.2.1]octan-3-yl)-6-chloro-8-fluoro-2-(((2R,7aS)-2-fluorotetrahydro-1H-pyrrol-izin-7a(5H)-yl)methoxy)-quinazolin-7-yl)-3-fluoro-quinolin-2-amine] |
| > 500 nM | > 500 nM | Nc1cccc(-c2ccccc2-c2c(Cl)cc3c(N4CCCCCC4)nc(OCC45CCCN4CCC5)nc3c2F)c1 [Compound 666, 2′-(4-(azepan-1-yl)-6-chloro-8-fluoro-2-((tetrahydro-1H-pyrrolizin-7a(5H)-yl)meth-oxy)quinazolin-7-yl)-[1,1′-biphenyl]-3-amine] |
| < 500 nM | > 500 nM | Nc1nc2c(-c3c(Cl)cc4c(N5CCCCCCC5)nc(OC[C@@]56CCCN5C[C@H](F)C6)nc4c3F)ccc(F)c2s1 [Compound 667, 4-(4-(azocan-1-yl)-6-chloro-8-fluoro-2-(((2R,7aS)-2-fluorotetrahydro-1H-pyrrol-izin-7a(5H)-yl)methoxy)-quinazolin-7-yl)-7-fluoro-benzo[d]thiazol-2-amine] |
| < 500 nM | > 500 nM | Oc1cc(-c2c(F)cc3c(N4CC5CCC(C4)N5)nc(OCC45CCCN4CCC5)nc3c2F)c2ccccc2c1 [Compound 669, 4-(4-(3,8-diazabicyclo-[3.2.1]octan-3-yl)-6,8-difluoro-2-((tetrahydro-1H-pyrrolizin-7a(5H)-yl)methoxy)quinazolin-7-yl)naphthalen-2-ol] |
| > 500 nM | > 500 nM | Nc1cc(-c2c(Cl)cc3c(N4CCCCCC4)nc(OCC45CCCN4CCC5)nc3c2F)ccc1F [Compound 670, 5-(4-(azepan-1-yl)-6-chloro-8-fluoro-2-((tetrahydro-1H-pyrrolizin-7a(5H)-yl)meth-oxy)quinazolin-7-yl)-2-fluoroaniline] |
| > 500 nM | > 500 nM | Fc1c(-c2ccc(F)c3[nH]nc(I)c23)c(Cl)cc2c(N3CC4CCC(C3)N4)nc(OC[C@@]34CCCN3C[C@H](F)C4)nc12 [Compound 671, 4-(3,8-diazabicyclo[3.2.1]-octan-3-yl)-6-chloro-8-fluoro-7-(7-fluoro-3-iodo-1H-indazol-4-yl)-2-(((2R,7aS)-2-fluorotetra-hydro-1H-pyrrolizin-7a(5H)-yl)methoxy)quinazoline] |
| < 500 nM | > 500 nM | CN1CCC[C@H]1COc1nc(N2CCCCC(N)C2)c2cc(Cl)c(-c3cccc4sc(N)nc34)c(F)c2n1 (stereo partly drawn) [Compound 672, 4-(4-(3-aminoazepan-1-yl)-6-chloro-8-fluoro-2-(((S)-1-methylpyrrolidin-2-yl)meth-oxy)quinazolin-7-yl)ben-zo[d]thiazol-2-amine] |
| < 500 nM | > 500 nM | N#Cc1c(N)sc2c(F)ccc(-c3c(Cl)cc4c(N5CC6CCC(C5)N6)nc(OC[C@@]56CCCN5C[C@H](F)C6)nc4c3F)c12 [Compound 673, 4-(4-(3,8-diazabicyclo-[3.2.1]octan-3-yl)-6-chloro-8-fluoro-2-(((2R,7aS)-2-fluorotetrahydro-1H-pyrrol-izin-7a(5H)-yl)methoxy)-quinazolin-7-yl)-2-amino-7-fluorobenzo[b]thiophene-3-carbonitrile] |
| < 500 nM | > 500 nM | N#Cc1csc2cccc(-c3c(Cl)cc4c(N5CC6CCC(C5)N6)nc(OC[C@@]56CCCN5C[C@H](F)C6)nc4c3F)c12 [Compound 674, 4-(4-(3,8-diazabicyclo-[3.2.1]-octan-3-yl)-6-chloro-8-fluoro-2-(((2R,7aS)-2-fluorotetrahydro-1H-pyrrol-izin-7a(5H)-yl)methoxy)-quinazolin-7-yl)benzo[b]-thiophene-3-carbonitrile] |
| < 500 nM | > 500 nM | Nc1nc2c(-c3c(Cl)cc4c(N5CCCCCC5)nc(OCC5(CN6CCCC6)CC5)nc4c3F)ccc(F)c2s1 [Compound 677, 4-(4-(azepan-1-yl)-6-chloro-8-fluoro-2-((1-(pyrrolidin-1-ylmethyl)cyclopropyl)meth-oxy)quinazolin-7-yl)-7-fluorobenzo[d]thiazol-2-amine] |
| > 500 nM | > 500 nM | Cc1ccc2cnn(C#N)c2c1-c1c(Cl)cc2c(N3CC4CCC(C3)N4)nc(OC[C@@]34CCCN3C[C@H](F)C4)nc2c1F [Compound 678, 7-(4-(3,8-diazabicyclo-[3.2.1]octan-3-yl)-6-chloro-8-fluoro-2-(((2R,7aS)-2-fluorotetrahydro-1H-pyrrol-izin-7a(5H)-yl)methoxy)-quinazolin-7-yl)-6-methyl-1H-indazole-1-carbonitrile] |
| < 500 nM | > 500 nM | N#Cc1c(N)sc2c(F)ccc(-c3c(Cl)cc4c(N5C[C@H]6CC[C@@H](C5)N6C5CCOCC5)nc(OC[C@@]56CCCN5C[C@H](F)C6)nc4c3F)c12 [Compound 679, 2-amino-4-(6-chloro-8-fluoro-2-(((2R,7aS)-2-fluorotetrahydro-1H-pyrrol-izin-7a(5H)-yl)methoxy)-4-((1R,5S)-8-(tetrahydro-2H-pyran-4-yl)-3,8-diaza-bicyclo[3.2.1]octan-3-yl)-quinazolin-7-yl)-7-fluoro-benzo[b]thiophene-3-carbonitrile] |
| < 500 nM | > 500 nM | Nc1nc2c(-c3c(F)cc4c(N5CC6CCC(C5)N6)nc(OCC56CCCN5CCC6)nc4c3F)ccc(F)c2s1 [Compound 680, 4-(4-(3,8-diazabicyclo-[3.2.1]octan-3-yl)-6,8-difluoro-2-((tetrahydro-1H-pyrrolizin-7a(5H)-yl)methoxy)quinazolin-7-yl)-7-fluorobenzo[d]thiazol-2-amine] |
| < 500 nM | > 500 nM | CN(C)CC1CN(c2nc(OCC34CCCN3CCC4)nc3c(F)c(-c4ccc(F)c5sc(N)nc45)c(Cl)cc23)CCCO1 (centres unmarked) [Compound 681, 4-(6-chloro-4-(2-((dimethyl-amino)methyl)-1,4-oxaze-pan-4-yl)-8-fluoro-2-((tetra-hydro-1H-pyrrolizin-7a(5H)-yl)methoxy)quinazolin-7-yl)-7-fluorobenzo[d]thiazol-2-amine] |
| < 500 nM | > 500 nM | CC(C)CCN1[C@@H]2CC[C@H]1CN(c1nc(OCC34CCCN3CCC4)nc3c(F)c(-c4ccc(F)c5sc(N)nc45)c(Cl)cc13)C2 [Compound 682, 4-(6-chloro-8-fluoro-4-((1R,5S)-8-isopentyl-3,8-diazabicyclo[3.2.1]octan-3-yl)-2-((tetrahydro-1H-pyr-rolizin-7a(5H)-yl)methoxy)-quinazolin-7-yl)-7-fluoro-benzo[d]thiazol-2-amine] |
| > 500 nM | > 500 nM | Nc1c(-c2ccccc2)cccc1-c1c(Cl)cc2c(N3CC4CCC(C3)N4)nc(OCC34CCCN3CCC4)nc2c1F [Compound 683, 3-(4-(3,8-diazabicyclo-[3.2.1]-octan-3-yl)-6-chloro-8-fluoro-2-((tetrahydro-1H-pyrrolizin-7a(5H)-yl)meth-oxy)quinazolin-7-yl)-[1,1′-biphenyl]-2-amine] |
| < 500 nM | > 500 nM | Nc1nc2c(-c3c(Cl)cc4c(N5CCC6CCC(C5)N6)nc(OC[C@@]56CCCN5C[C@H](F)C6)nc4c3F)ccc(F)c2s1 (stereo partly drawn) [Compound 684, 4-(4-(3,9-diazabicyclo-[4.2.1]nonan-3-yl)-6-chloro-8-fluoro-2-(((2R,7aS)-2-fluorotetrahydro-1H-pyrrol-izin-7a(5H)-yl)methoxy)-quinazolin-7-yl)-7-fluoro-benzo[d]thiazol-2-amine] |
| < 500 nM | > 500 nM | Nc1nc2c(-c3c(Cl)cc4c(N5CC6CCCC5CN6)nc(OC[C@@]56CCCN5C[C@H](F)C6)nc4c3F)ccc(F)c2s1 (stereo partly drawn) [Compound 685, 4-(4-(6,8-diazabicyclo-[3.2.2]nonan-6-yl)-6-chloro-8-fluoro-2-(((2R,7aS)-2-fluorotetrahydro-1H-pyrrol-izin-7a(5H)-yl)methoxy)-quinazolin-7-yl)-7-fluoro-benzo[d]thiazol-2-amine] |
| < 500 nM | > 500 nM | Nc1nc2c(-c3c(Cl)cc4c(N5CC6CC5CCN6)nc(OC[C@@]56CCCN5C[C@H](F)C6)nc4c3F)ccc(F)c2s1 (stereo partly drawn) [Compound 686, 4-(4-(2,6-diazabicyclo-[3.2.1]octan-6-yl)-6-chloro-8-fluoro-2-(((2R,7aS)-2-fluorotetrahydro-1H-pyrrol-izin-7a(5H)-yl)methoxy)-quinazolin-7-yl)-7-fluoro-benzo[d]thiazol-2-amine] |
| > 500 nM | > 500 nM | Cc1ccnc(C(C)C)c1-n1c(=O)nc(N2CC3CCC(C2)N3)c2cc(F)c(-c3c(O)cccc3F)nc21 [Compound 687, 4-(3,8-diazabicyclo[3.2.1]-octan-3-yl)-6-fluoro-7-(2-fluoro-6-hydroxyphenyl)-1-(2-isopropyl-4-methylpyr-idin-3-yl)pyrido[2,3-d]pyr-imidin-2(1H)-one] |
